Assay results reported in patent US20260242335A1, “HETEROCYCLOALKYL BETA-HYDROXY ALKYL AMINES FOR USE IN THE TREATMENT OF HYPERGLYCAEMIA AND DISORDERS CHARACTERISED BY HYPERGLYCAEMIA” (ATROGI AB, priority 2023, published 2026).
Structures can show the parent of a compound that is named as a salt.

Tests used:
L6-myotubes [1] = assay: Measurement of intracellular cAMP levels (alpha screen cAMP kit) in differentiated cells, compared to isoproterenol; assay type: cell-based; settings: 0.25 h, compound at 10 μM vs isoproterenol at 10 μM, 15 min stimulation, read-out: Biological example 2: intracellular cAMP level activity compared to that of isoproterenol
Protocol: (§1) L6-myoblasts were grown in Dulbecco's Modified Eagle's Medium (DMEM) containing 1 g/L glucose supplemented with 10% fetal bovine serum, 2 mM L-Glutamine, 50 U/mL penicillin, […] streptomycin and 10 mM HEPES. Cells were plated at 1×10^5 cells per mL in 24-well plates. After reaching 90% confluence the cells were grown in medium containing 2% FBS for 7 days where upon cells differentiated into myotubes.
Differentiated cells were serum-starved overnight and stimulated with an agonist, final concentration 1×10^−5 M, for 15 min in stimulation buffer (HBSS supplemented with 1% BSA, 5 mM HEPES and 1 mM IBMX, pH 7.4). The medium was aspirated and 100 μL of 95% EtOH was added to each well of the 24-well plate and cells were kept at −20° C. overnight. The EtOH was allowed to evaporate and 500 μL of lysis buffer (1% BSA, 5 mM HEPES and 0.3% Tween-20, pH 7.4) was added to each well. The plate was kept at −80° C. for 30 min and then at −20° C. until the day of detection when the samples were thawed. Intracellular cAMP levels were detected using an alpha screen cAMP kit (6760635D from Perkin Elmer). The activity for each compound is compared to that of isoproterenol.

L6-myotubes [2] = assay: Glucose uptake (3H-2-deoxyglucose) in differentiated L6-myotubes, compared to isoproterenol; assay type: cell-based; settings: compound at 10 μM vs isoproterenol at 10 μM, read-out: Biological example 1: glucose uptake activity compared to that of isoproterenol
Protocol: as §1
Differentiated L6-myotubes were serum-starved overnight in medium containing 0.5% fatty-acid free BSA and stimulated with an agonist, with a final concentration of 1×10^−5 M. After 1 h 40 min the cells were washed with warm glucose free medium or PBS twice and another portion of agonist was added to the glucose free medium. After 20 min the cells were exposed to 50 nM ^3H-2-deoxyglucose for another 10 min before washed in ice cold glucose free medium or PBS three times and lysed in 400 μL/well 0.2 M NaOH for 1 h at 60° C. The cell lysate was mixed with 4 mL scintillation buffer (Emulsifier Safe, Perkin Elmer) and the radioactivity was detected in a p-counter (Tri-Carb 4810TR, Perkin Elmer). The activity for each compound is compared to that of isoproterenol.

In the case of `CC(C)(CC1CCNCC1)NC[C@H](O)c1cncc(F)c1` [Example 46, (R)-1-(5-Fluoropyridin-3-yl)-2-((2-methyl-1-(piperidin-4-yl)propan-2-yl)amino)ethan-1-ol], the Emax at 10 µM (L6-myotubes [1]) was less than 25% and the Emax at 10 µM (L6-myotubes [2]) was 50 to 75%.
With `CC(C)(C[C@H]1CCCCO1)NC[C@H](O)c1cccc(F)c1` [Example 81, (R)-1-(3-Fluorophenyl)-2-((2-methyl-1-((R)-tetrahydro-2H-pyran-2-yl)propan-2-yl)amino)ethan-1-ol] the Emax at 10 µM (L6-myotubes [1]) was 25 to 50% and the Emax at 10 µM (L6-myotubes [2]) was greater than 75%.
`CNC(=O)N1CCC[C@@H](CC(C)(C)NC[C@H](O)c2cncc(F)c2)C1` [Example 19, (S)-3-(2-(((R)-2-(5-Fluoropyridin-3-yl)-2-hydroxyethyl)amino)-2-methylpropyl)-N-methylpiperidine-1-carboxamide dihydrochloride] was tested, and the Emax at 10 µM (L6-myotubes [1]) was 50 to 75% and the Emax at 10 µM (L6-myotubes [2]) was greater than 75%.
With `CC(C)(C[C@H]1CCNC1)NC[C@H](O)c1cccc(F)c1` [Example 57, (R)-1-(3-Fluorophenyl)-2-((2-methyl-1-((R)-pyrrolidin-3-yl)propan-2-yl)amino)ethan-1-ol] the Emax at 10 µM (L6-myotubes [1]) was less than 25% and the Emax at 10 µM (L6-myotubes [2]) was greater than 75%.
With `CC(=O)N1CCN(CC(C)(C)NC[C@H](O)c2cccc(F)c2)CC1` [Example 86, (R)-1-(4-(2-((2-(3-Fluorophenyl)-2-hydroxyethyl)amino)-2-methyl-propyl)piperazin-1-yl)ethan-1-one dihydrochloride] the Emax at 10 µM (L6-myotubes [1]) was less than 25% and the Emax at 10 µM (L6-myotubes [2]) was greater than 75%.
`CC(C)(C[C@@H]1CCCN(C(=O)OC(C)(C)C)C1)NC[C@H](O)c1cncc(F)c1` [Example 11, tert-Butyl (S)-3-(2-(((R)-2-(5-fluoropyridin-3-yl)-2-hydroxyethyl)-amino)-2-methylpropyl)piperidine-1-carboxylate] was tested, and the Emax at 10 µM (L6-myotubes [1]) was greater than 75% and the Emax at 10 µM (L6-myotubes [2]) was greater than 75%.
Work on `CC(C)(CC1CCOCC1)NC[C@H](O)c1cccc(F)c1` [Example 80, (R)-1-(3-Fluorophenyl)-2-((2-methyl-1-(tetrahydro-2H-pyran-4-yl)-propan-2-yl)amino)ethan-1-ol] yielded an Emax at 10 µM (L6-myotubes [1]) of less than 25% and an Emax at 10 µM (L6-myotubes [2]) greater than 75%.
`CC(C)(C[C@@H]1CCCCO1)NC[C@H](O)c1cccc(F)c1` [Example 82, (R)-1-(3-Fluorophenyl)-2-((2-methyl-1-((S)-tetrahydro-2H-pyran-2-yl)propan-2-yl)amino)ethan-1-ol] gave an Emax at 10 µM (L6-myotubes [1]) of less than 25% and an Emax at 10 µM (L6-myotubes [2]) greater than 75%.
`CN(C)C(=O)N1CCC[C@@H](CC(C)(C)NC[C@H](O)c2cncc(F)c2)C1` [Example 18, (S)-3-(2-(((R)-2-(5-Fluoropyridin-3-yl)-2-hydroxyethyl)amino)-2-methylpropyl)-N,N-dimethylpiperidine-1-carboxamide dihydrochloride] showed an Emax at 10 µM (L6-myotubes [1]) of less than 25% and an Emax at 10 µM (L6-myotubes [2]) greater than 75%.
`CC(C)(C[C@H]1CCCOC1)NC[C@H](O)c1cccc(F)c1` [Example 83, (R)-1-(3-Fluorophenyl)-2-((2-methyl-1-((R)-tetrahydro-2H-pyran-3-yl)propan-2-yl)amino)ethan-1-ol] gave an Emax at 10 µM (L6-myotubes [1]) of less than 25% and an Emax at 10 µM (L6-myotubes [2]) greater than 75%.
`CC(C)(C[C@@H]1CCN(C(=O)OC(C)(C)C)C1)NC[C@H](O)c1cccc(F)c1` [Example 64, tert-Butyl (S)-3-(2-(((R)-2-(3-fluorophenyl)-2-hydroxyethyl)amino)-2-methylpropyl)pyrrolidine-1-carboxylate] gave an Emax at 10 µM (L6-myotubes [1]) greater than 75% and an Emax at 10 µM (L6-myotubes [2]) of 50 to 75%.
`CC(=O)NC1(C)CCN(CC(C)(C)NC[C@H](O)c2cccc(F)c2)CC1` [Example 87, (R)—N-(1-(2-((2-(3-Fluorophenyl)-2-hydroxyethyl)amino)-2-methyl-propyl)-4-methylpiperidin-4-yl)acetamide] was tested, and the Emax at 10 µM (L6-myotubes [2]) was 50 to 75%.
With `CC(C)(C[C@@H]1CCNC1=O)NC[C@H](O)c1cccc(F)c1` [Example 77, (S)-3-(2-(((R)-2-(3-Fluorophenyl)-2-hydroxyethyl)amino)-2-methyl-propyl)pyrrolidin-2-one hydrochloride] the Emax at 10 µM (L6-myotubes [1]) was less than 25% and the Emax at 10 µM (L6-myotubes [2]) was 50 to 75%.
`CC(C)(CC1CCN(C(=O)C(F)(F)F)CC1)NC[C@H](O)c1cncc(F)c1` [Example 48, (R)-2,2,2-Trifluoro-1-(4-(2-((2-(5-fluoropyridin-3-yl)-2-hydroxyethyl)-amino)-2-methylpropyl)piperidin-1-yl)ethan-1-one dihydrochloride] gave an Emax at 10 µM (L6-myotubes [1]) of less than 25% and an Emax at 10 µM (L6-myotubes [2]) of 50 to 75%.
In the case of `CC(C)(C[C@@H]1CCCN(C(=O)OC(C)(C)C)C1)NC[C@H](O)c1cccc(C(F)(F)F)n1` [Example 20, tert-Butyl (S)-3-(2-(((S)-2-hydroxy-2-(6-(trifluoromethyl)pyridin-2-yl)-ethyl)amino)-2-methylpropyl)piperidine-1-carboxylate], the Emax at 10 µM (L6-myotubes [1]) was less than 25% and the Emax at 10 µM (L6-myotubes [2]) was greater than 75%.
`CC(C)(C[C@@H]1CCCN(C(=O)C(F)(F)F)C1)NC[C@H](O)c1cccc(F)c1` [Example 6, 2,2,2-Trifluoro-1-((S)-3-(2-(((R)-2-(3-fluorophenyl)-2-hydroxyethyl)-amino)-2-methylpropyl)piperidin-1-yl)ethan-1-one] showed an Emax at 10 µM (L6-myotubes [1]) of less than 25% and an Emax at 10 µM (L6-myotubes [2]) greater than 75%.
Work on `CN(C)C(=O)N1CCC(CC(C)(C)NC[C@H](O)c2cncc(F)c2)CC1` [Example 50, (R)-4-(2-((2-(5-Fluoropyridin-3-yl)-2-hydroxyethyl)amino)-2-methyl-propyl)-N,N-dimethylpiperidine-1-carboxamide dihydrochloride] yielded an Emax at 10 µM (L6-myotubes [1]) of less than 25% and an Emax at 10 µM (L6-myotubes [2]) of 50 to 75%.
For `CC(=O)N1CC[C@@H](CC(C)(C)NC[C@H](O)c2cccc(F)c2)C1` [Example 66, 1-((S)-3-(2-(((R)-2-(3-Fluorophenyl)-2-hydroxyethyl)amino)-2-methylpropyl)pyrrolidin-1-yl)ethan-1-one], the Emax at 10 µM (L6-myotubes [1]) was 25 to 50% and the Emax at 10 µM (L6-myotubes [2]) was greater than 75%.
`CC(C)(C[C@H]1CCCN(C(=O)OC(C)(C)C)C1)NC[C@H](O)c1cccc(F)c1` [Example 39, tert-Butyl (R)-3-(2-(((R)-2-(3-fluorophenyl)-2-hydroxyethyl)amino)-2-methylpropyl)piperidine-1-carboxylate] gave an Emax at 10 µM (L6-myotubes [1]) of 25 to 50% and an Emax at 10 µM (L6-myotubes [2]) of 50 to 75%.
`CC(C)(CC1CCNCC1)NC[C@H](O)c1cccc(F)c1` [Example 29, (R)-1-(3-Fluorophenyl)-2-((2-methyl-1-(piperidin-4-yl)propan-2-yl)-amino)ethan-1-ol] showed an Emax at 10 µM (L6-myotubes [1]) of less than 25% and an Emax at 10 µM (L6-myotubes [2]) greater than 75%.
`CC(C)(C[C@@H]1CNC(=O)C1)NC[C@H](O)c1cncc(F)c1` [Example 74, (S)-4-(2-(((R)-2-(5-Fluoropyridin-3-yl)-2-hydroxyethyl)amino)-2-methylpropyl)pyrrolidin-2-one dihydrochloride] was tested, and the Emax at 10 µM (L6-myotubes [1]) was 25 to 50% and the Emax at 10 µM (L6-myotubes [2]) was greater than 75%.
For `CC(C)(CC1CCN(S(C)(=O)=O)CC1)NC[C@H](O)c1cncc(F)c1` [Example 35, (R)-1-(5-Fluoropyridin-3-yl)-2-((2-methyl-1-(1-(methylsulfonyl)-piperidin-4-yl)propan-2-yl)amino)ethan-1-ol dihydrochloride], the Emax at 10 µM (L6-myotubes [1]) was less than 25% and the Emax at 10 µM (L6-myotubes [2]) was 50 to 75%.
For `CC(=O)N1CC[C@H](CC(C)(C)NC[C@H](O)c2cncc(F)c2)C1` [Example 62, 1-((R)-3-(2-(((R)-2-(5-Fluoropyridin-3-yl)-2-hydroxyethyl)amino)-2-methylpropyl)pyrrolidin-1-yl)ethan-1-one], the Emax at 10 µM (L6-myotubes [1]) was less than 25% and the Emax at 10 µM (L6-myotubes [2]) was greater than 75%.
`CC(C)(C[C@@H]1CCN(S(C)(=O)=O)C1)NC[C@H](O)c1cccc(F)c1` [Example 67, (R)-1-(3-Fluorophenyl)-2-((2-methyl-1-((S)-1-(methylsulfonyl)-pyrrolidin-3-yl)propan-2-yl)amino)ethan-1-ol] gave an Emax at 10 µM (L6-myotubes [1]) of less than 25% and an Emax at 10 µM (L6-myotubes [2]) greater than 75%.
With `CC(C)(C[C@H]1CCC(=O)NC1)NC[C@H](O)c1cccc(F)c1` [Example 38, (R)-5-(2-(((R)-2-(3-Fluorophenyl)-2-hydroxyethyl)amino)-2-methyl-propyl)piperidin-2-one hydrochloride] the Emax at 10 µM (L6-myotubes [1]) was less than 25% and the Emax at 10 µM (L6-myotubes [2]) was greater than 75%.
`CC(C)(C[C@H]1CCN(S(C)(=O)=O)C1)NC[C@H](O)c1cccc(F)c1` [Example 59, (R)-1-(3-Fluorophenyl)-2-((2-methyl-1-((R)-1-(methylsulfonyl)-pyrrolidin-3-yl)propan-2-yl)amino)ethan-1-ol] showed an Emax at 10 µM (L6-myotubes [1]) of less than 25% and an Emax at 10 µM (L6-myotubes [2]) greater than 75%.
`CC(C)(CN1CCC(C)(NS(C)(=O)=O)CC1)NC[C@H](O)c1cccc(F)c1` [Example 88, (R)—N-(1-(2-((2-(3-Fluorophenyl)-2-hydroxyethyl)amino)-2-methyl-propyl)-4-methylpiperidin-4-yl)methanesulfonamide dihydrochloride] was tested, and the Emax at 10 µM (L6-myotubes [2]) was 50 to 75%.
`CN1C[C@@H](CC(C)(C)NC[C@H](O)c2cccc(F)c2)CCC1=O` [Example 79, (R)-5-(2-(((R)-2-(3-Fluorophenyl)-2-hydroxyethyl)amino)-2-methyl-propyl)-1-methylpiperidin-2-one hydrochloride] gave an Emax at 10 µM (L6-myotubes [2]) greater than 75%.
